Measured values from PMC9416303, “Two New Picoline-Derived Meroterpenoids with Anti-Acetylcholinesterase Activity from Ascidian-Derived Fungus Amphichorda felina” (Molecules, 2022).

Biological target: acetylcholinesterase (AChE) (Electrophorus electricus, UniProt O42275)
Assay: modified Ellman's colorimetric assay, commercial AChE (Sigma C3389)
Assay type: biochemical

Chain of acetylcholinesterase (AChE) (O42275 24-633): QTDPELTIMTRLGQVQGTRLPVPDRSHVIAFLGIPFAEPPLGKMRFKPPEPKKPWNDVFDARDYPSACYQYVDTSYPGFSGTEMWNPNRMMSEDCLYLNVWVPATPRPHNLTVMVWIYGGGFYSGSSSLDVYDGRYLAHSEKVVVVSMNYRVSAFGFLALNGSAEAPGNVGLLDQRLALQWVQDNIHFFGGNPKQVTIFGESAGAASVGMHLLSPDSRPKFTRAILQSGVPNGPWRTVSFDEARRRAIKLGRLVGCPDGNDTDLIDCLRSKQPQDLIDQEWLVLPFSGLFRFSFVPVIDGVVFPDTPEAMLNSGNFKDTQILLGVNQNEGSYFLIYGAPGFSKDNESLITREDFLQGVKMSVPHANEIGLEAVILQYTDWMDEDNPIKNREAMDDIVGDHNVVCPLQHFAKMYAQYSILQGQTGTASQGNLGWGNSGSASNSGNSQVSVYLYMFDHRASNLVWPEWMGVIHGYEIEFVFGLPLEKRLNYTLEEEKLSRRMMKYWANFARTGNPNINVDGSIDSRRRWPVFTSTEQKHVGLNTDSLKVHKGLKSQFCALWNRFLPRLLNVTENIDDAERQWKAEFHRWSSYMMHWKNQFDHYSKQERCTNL

| SMILES | IC50 [µM] |
| --- | --- |
| C[C@H]1COC(c2cc3c(cn2)OC(C)(C)[C@H](O)C3)=CC1=O [compound 1, Amphichoterpenoid D] | 12.5 |
| C[C@@H]1COC(c2cc3c(cn2)OC(C)(C)[C@H](O)C3)=CC1=O [compound 2, Amphichoterpenoid E] | 11.6 |
